Assay results published in patent publication US10940139B2, “Compounds that interact with the Ras superfamily for the treatment of cancers, inflammatory diseases, rasopathies, and fibrotic disease” (Shy Therapeutics LLC, priority 2017, dated 2021).
Where two headings read alike, the source gives them in different places.

How the values were obtained:
[1] = target: KRas G12C/Q61H double mutant (Homo sapiens (Human), UniProt P01116, G12C/Q61H); assay: Ras GTP binding domain inhibition assay (labeled GTP); conditions: 20 μM compound
Method in brief: (§1)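 Fluorescence read-out of Cy3-/Cy5-GTP remaining bound to nickel-immobilized His-KRas after washes. Protein was coated overnight at 4° C, then exposed to compound for 3 h at room temperature before a 45 min labeled-GTP incubation.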

KRas Q61H mutant = KRas Q61H mutant (Homo sapiens (Human), UniProt P01116, Q61H); assay: as above; conditions: 20 μM compound
Method in brief: as §1

[2] = target: KRas G12D/Q61H double mutant (Homo sapiens (Human), UniProt P01116, G12D/Q61H); assay: as above
Method in brief: as §1

KRas G12D mutant protein = KRas G12D mutant protein (Homo sapiens (Human), UniProt P01116, G12D); assay: as above; conditions: at 20 μM; read-out: KRas G12D % Inh.
Rac-1 = Rac-1 (Homo sapiens (Human), UniProt P63000); assay: Rac inhibition assay (labeled GTP); assay type: binding; conditions: read-out: Rac-1 % Inh.
Rho-A = Rho-A (Homo sapiens (Human), UniProt P61586); assay: Rho inhibition assay (labeled GTP); assay type: binding; conditions: read-out: Rho-A % Inh.
[3] = KRas G12C/Q61H double mutant, read-out: % Inhibition at 20 μM of K-Ras mutant and wild-type protein, KRas G12C Q61H
[4] = KRas Q61H, read-out: % Inhibition at 20 μM of K-Ras mutant and wild-type protein, KRas Q61H
[5] = 20 μM compound, KRas G12D/Q61H double mutant, read-out: % Inhibition at 20 μM of K-Ras mutant and wild-type protein, KRas G12D Q61H
[6] = read-out: % Inhibition at 20 μM KRas G12C Q61H
[7] = read-out: % Inhibition at 20 μM KRas Q61H
[8] = 20 μM compound, read-out: % Inhibition at 20 μM KRas G12D Q61H
[9] = at 20 μM, read-out: KRas G12D Q61H % Inh.

Chain of KRas G12D mutant protein (P01116-2 other isoform, or with tags, fused parts or gaps G12D): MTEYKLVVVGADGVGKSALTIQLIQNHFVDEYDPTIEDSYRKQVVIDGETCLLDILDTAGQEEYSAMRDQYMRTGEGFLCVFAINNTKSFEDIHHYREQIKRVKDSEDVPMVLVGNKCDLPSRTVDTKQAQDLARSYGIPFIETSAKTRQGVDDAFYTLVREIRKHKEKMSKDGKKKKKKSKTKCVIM
Chain of KRas G12C/Q61H double mutant (P01116-2 other isoform, or with tags, fused parts or gaps G12C/Q61H): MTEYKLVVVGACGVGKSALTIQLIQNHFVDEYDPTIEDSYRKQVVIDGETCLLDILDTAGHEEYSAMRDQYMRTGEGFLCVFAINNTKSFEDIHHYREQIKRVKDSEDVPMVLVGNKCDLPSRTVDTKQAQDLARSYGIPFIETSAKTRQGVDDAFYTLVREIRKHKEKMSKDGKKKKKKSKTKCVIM
Chain of KRas G12D/Q61H double mutant (P01116-2 other isoform, or with tags, fused parts or gaps G12D/Q61H): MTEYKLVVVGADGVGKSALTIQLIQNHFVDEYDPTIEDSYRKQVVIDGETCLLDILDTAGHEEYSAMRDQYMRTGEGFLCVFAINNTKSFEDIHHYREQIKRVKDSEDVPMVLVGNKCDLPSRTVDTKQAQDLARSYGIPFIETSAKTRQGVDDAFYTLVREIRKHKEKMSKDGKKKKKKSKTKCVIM
Chain of KRas Q61H mutant (P01116-2 other isoform, or with tags, fused parts or gaps Q61H): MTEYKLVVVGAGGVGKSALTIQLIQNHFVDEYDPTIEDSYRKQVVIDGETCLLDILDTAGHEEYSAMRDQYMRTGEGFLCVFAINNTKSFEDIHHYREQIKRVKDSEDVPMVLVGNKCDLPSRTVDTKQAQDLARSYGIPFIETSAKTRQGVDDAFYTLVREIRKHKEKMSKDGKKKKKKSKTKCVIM
Chain of Rho-A (P61586 whole entry): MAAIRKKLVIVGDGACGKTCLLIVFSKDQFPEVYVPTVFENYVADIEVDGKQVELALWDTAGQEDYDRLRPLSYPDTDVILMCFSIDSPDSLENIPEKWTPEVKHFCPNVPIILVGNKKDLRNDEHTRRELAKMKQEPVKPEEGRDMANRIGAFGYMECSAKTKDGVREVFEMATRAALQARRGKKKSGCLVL

SMILES | inhibition at 20 µM [1, 6] [%] | inhibition at 20 µM (KRas Q61H mutant; [7]) [%] | inhibition at 20 µM [2, 8] [%] | inhibition at 20 µM (KRas G12D mutant protein) [%] | inhibition at 20 µM (Rac-1) [%] | inhibition at 20 µM [2, 9] [%] | inhibition at 20 µM (Rho-A) [%] | further results
Cc1sc2c(O)nc(-c3ccccn3)nc2c1Br [drawing 3522] | – | – | – | – | – | – | – | inhibition at 20 µM [1, 3]: 25 to 50%; inhibition at 20 µM (KRas Q61H mutant; [4]): 1 to 25%; inhibition at 20 µM [2, 5]: 25 to 50%
COc1cnc(C(C)(C)N)nc1O [drawing 3491] | – | – | – | – | – | – | – | inhibition at 20 µM [1, 3]: 1 to 25%; inhibition at 20 µM (KRas Q61H mutant; [4]): 0%; inhibition at 20 µM [2, 5]: 1 to 25%
CNS(=O)(=O)CCCNC(=O)c1csc2nc(-c3ccccn3)nc(N3CCOCC3)c12 [drawing 2791] | 25 to 50 | 25 to 50 | 1 to 25 | – | – | – | – | –
O=C(NCCc1cncs1)c1csc2nc(-c3ccccn3)nc(N3CCOCC3)c12 [drawing 2749] | 25 to 50 | 25 to 50 | 1 to 25 | – | – | – | – | –
COc1ccc2c(c1)CCC2C(=O)Nc1ccnc(-c2ccccn2)n1 (centres unmarked) [drawing 2795] | 1 to 25 | 25 to 50 | 1 to 25 | – | – | – | – | –
COCCCCN(C)C(=O)c1csc2nc(-c3ccccn3)nc(N3CCOCC3)c12 [drawing 2790] | 25 to 50 | 51 to 75 | 1 to 25 | – | – | – | – | –
COc1ccc(-c2cc3nc(-c4ccccn4)nc(O)c3s2)cc1 [drawing 3563] | – | – | – | – | – | – | – | inhibition at 20 µM [1, 3]: 1 to 25%; inhibition at 20 µM (KRas Q61H mutant; [4]): 1 to 25%; inhibition at 20 µM [2, 5]: 1 to 25%
Oc1nc(-c2ccccn2)nc2c(-c3cc(C(F)(F)F)ccc3F)csc12 [drawing 3465] | – | – | – | – | – | – | – | inhibition at 20 µM [1, 3]: 1 to 25%; inhibition at 20 µM (KRas Q61H mutant; [4]): 1 to 25%; inhibition at 20 µM [2, 5]: 1 to 25%
Oc1nc(-c2ccccn2)nc2c(-c3ccccc3OC3CCCCC3)csc12 [drawing 2866] | 51 to 75 | 51 to 75 | 51 to 75 | – | – | – | – | –
COc1cccc(CC2CN(C(=O)c3csc4c(O)nc(-c5ccccn5)nc34)CCN2)c1 (centres unmarked) [drawing 2830] | 51 to 75 | 51 to 75 | 51 to 75 | – | – | – | – | –
Nc1nc(-c2ccccn2)nc(C(=O)NCCc2ccncc2)c1Oc1ccccc1 [drawing 3551] | – | – | – | – | – | – | – | inhibition at 20 µM [1, 3]: 1 to 25%; inhibition at 20 µM (KRas Q61H mutant; [4]): 25 to 50%; inhibition at 20 µM [2, 5]: 25 to 50%
Oc1nc(-c2ccccn2)nc2c(-c3ccccc3)csc12 [drawing 2694] | 25 to 50 | 51 to 75 | 25 to 50 | – | – | – | – | –
O=C(NCCc1cncnc1)c1csc2nc(-c3ccccn3)nc(N3CCOCC3)c12 [drawing 2784] | 25 to 50 | 25 to 50 | 1 to 25 | – | – | – | – | –
COc1cnc(CN)[nH]c1=O [drawing 2801] | 1 to 25 | 25 to 50 | 25 to 50 | – | – | – | – | –
Cc1cc(OC(F)F)ccc1-c1csc2c(O)nc(-c3ccccn3)nc12 [drawing 2878] | 25 to 50 | 25 to 50 | 25 to 50 | – | – | – | – | –
Oc1nc(-c2ccccn2)nc2c(Br)c(-c3ccccc3)sc12 [drawing 3553] | – | – | – | – | – | – | – | inhibition at 20 µM [1, 3]: 1 to 25%; inhibition at 20 µM (KRas Q61H mutant; [4]): 1 to 25%; inhibition at 20 µM [2, 5]: 0%
OCC1(c2ccc(-c3nc(-c4ccccn4)nc(-c4ccc(C5(CO)CC5)cc4)c3Oc3ccccc3)cc2)CC1 [drawing 3532] | – | – | – | – | – | – | – | inhibition at 20 µM [1, 3]: 1 to 25%; inhibition at 20 µM (KRas Q61H mutant; [4]): 1 to 25%; inhibition at 20 µM [2, 5]: 1 to 25%
Oc1nc(-c2ccccn2)nc2c(CC3CCNCC3)csc12 [drawing 3486] | – | – | – | – | – | – | – | inhibition at 20 µM [1, 3]: 51 to 75%; inhibition at 20 µM (KRas Q61H mutant; [4]): 51 to 75%; inhibition at 20 µM [2, 5]: 51 to 75%
O=C(c1csc2c(O)nc(-c3ccccn3)nc12)N1CCNC(Cc2cccc(F)c2)C1 (centres unmarked) [drawing 2832] | 51 to 75 | 51 to 75 | 51 to 75 | – | – | – | – | –
CC(C)(C)c1ccc(-c2csc3c(O)nc(-c4ccccn4)nc23)cc1 [drawing 2847] | 51 to 75 | 51 to 75 | 51 to 75 | – | – | – | – | –
COCCCCNC(=O)c1csc2nc(-c3ccccn3)nc(N3CCOCC3)c12 [drawing 2789] | 1 to 25 | 25 to 50 | 1 to 25 | – | – | – | – | –
Cn1cnc(-c2nc(O)c3sc(-c4ccncc4)c(-c4ccccc4)c3n2)c1 [drawing 3549] | – | – | – | – | – | – | – | inhibition at 20 µM [1, 3]: 1 to 25%; inhibition at 20 µM (KRas Q61H mutant; [4]): 1 to 25%; inhibition at 20 µM [2, 5]: 0%
Oc1nc(-c2ccccn2)nc2c(-c3ccc(CN4CCOCC4)cc3)csc12 [drawing 2882] | 25 to 50 | 25 to 50 | 25 to 50 | – | – | – | – | –
CC(C)(C(=O)Nc1nc(-c2ccccn2)nc2sccc12)c1ccc(C#N)cc1 [drawing 2752] | 1 to 25 | 1 to 25 | 0 | – | – | – | – | –
O=C(NCCc1ccnc(O)n1)c1csc2nc(-c3ccccn3)nc(N3CCOCC3)c12 [drawing 2898] | 51 to 75 | 51 to 75 | 1 to 25 | – | – | – | – | –
Oc1nc(-c2ccccn2)nc2c(-c3cccc(C(F)(F)F)c3)csc12 [drawing 3745] | – | – | – | 51 to 75 | 51 to 75 | 25 to 50 | 25 to 50 | –

More lines, main results first:

inhibition at 20 µM [1, 6] [%] | inhibition at 20 µM (KRas Q61H mutant; [7]) [%] | inhibition at 20 µM [2, 8] [%] | inhibition at 20 µM (KRas G12D mutant protein) [%] | inhibition at 20 µM (Rac-1) [%] | inhibition at 20 µM [2, 9] [%] | inhibition at 20 µM (Rho-A) [%] | SMILES | further results
– | – | – | 51 to 75 | 76 to 100 | 51 to 75 | 76 to 100 | Oc1nc(-c2ccccn2)nc2c(CC3CCNC3)csc12 (centres unmarked) [drawing 3844] | –
– | – | – | 51 to 75 | 51 to 75 | 51 to 75 | 25 to 50 | Cc1sc2c(O)nc(-c3ccccn3)nc2c1-c1ccncc1 [drawing 3816] | –
– | – | – | 51 to 75 | 76 to 100 | 51 to 75 | 76 to 100 | Oc1nc(-c2ccccn2)nc2c(-c3ccc(OC(F)F)cc3F)csc12 [drawing 3748] | –
– | – | – | 51 to 75 | 76 to 100 | 51 to 75 | 76 to 100 | Cc1cnccc1-c1csc2c(O)nc(-c3ccccn3)nc12 [drawing 3760] | –
– | – | – | 76 to 100 | 51 to 75 | 25 to 50 | 51 to 75 | COc1cccc(-c2csc3c(O)nc(-c4ccccn4)nc23)c1 [drawing 3744] | –
– | – | – | 51 to 75 | 76 to 100 | 51 to 75 | 51 to 75 | CC(C)(O)c1ccc(-c2csc3c(O)nc(-c4ccccn4)nc23)c(F)c1 [drawing 3752] | –
– | – | – | 51 to 75 | 76 to 100 | 51 to 75 | 76 to 100 | COc1cnc(-c2ccccn2)nc1O [drawing 3787] | –
– | – | – | 51 to 75 | 51 to 75 | 51 to 75 | 76 to 100 | Oc1nc(-c2ccccn2)nc2c(CC3CCNCC3)csc12 [drawing 3805] | –
– | – | – | 76 to 100 | 76 to 100 | 51 to 75 | 76 to 100 | Oc1nc(-c2ccccn2)nc2c(-c3cc(CN4CCCC4)ccc3F)csc12 [drawing 3821] | –
– | – | – | 76 to 100 | 76 to 100 | 51 to 75 | 76 to 100 | OCC1(c2ccc(-c3csc4c(O)nc(-c5ccccn5)nc34)cc2)CC1 [drawing 3758] | –
– | – | – | 51 to 75 | 76 to 100 | 51 to 75 | 76 to 100 | O=C(COCc1cccnc1)Nc1nc(-c2ccccn2)nc2sccc12 [drawing 3701] | –
– | – | – | 51 to 75 | 76 to 100 | 51 to 75 | 51 to 75 | Oc1nc(-c2ccccn2)nc2c(-c3ccc4c(c3)OCO4)csc12 [drawing 3751] | –
– | – | – | 51 to 75 | 25 to 50 | 51 to 75 | 51 to 75 | Oc1nc(-c2ccccn2)nc2cc(-c3ccncc3)sc12 [drawing 3879] | –
– | – | – | 51 to 75 | 51 to 75 | 51 to 75 | 51 to 75 | Oc1nc(-c2ccccn2)nc2c(-c3cc(F)cc(F)c3)csc12 [drawing 3772] | –
– | – | – | 25 to 50 | 25 to 50 | 25 to 50 | 51 to 75 | COc1nc(-c2cn(C)cn2)nc2sc(-c3ccncc3)c(-c3ccccc3)c12 [drawing 3849] | –
– | – | – | 76 to 100 | 76 to 100 | 76 to 100 | 76 to 100 | O=C(c1csc2c(O)nc(-c3ccccn3)nc12)N1CCC(c2cccc(O)c2)C1 (centres unmarked) [drawing 3712] | –
– | – | – | 51 to 75 | 76 to 100 | 51 to 75 | 76 to 100 | O=C(COCc1ccncc1)Nc1nc(-c2ccccn2)nc2sccc12 [drawing 3700] | –
– | – | – | 51 to 75 | 51 to 75 | 51 to 75 | 76 to 100 | O=C(c1csc2c(O)nc(-c3ccccn3)nc12)N1CCC(c2ccncc2)C1 (centres unmarked) [drawing 3711] | –
– | – | – | 25 to 50 | 51 to 75 | 25 to 50 | 51 to 75 | CNC(=O)c1ccc(-c2csc3c(O)nc(-c4ccccn4)nc23)cc1C [drawing 3757] | –
